The text below walks through data of EPA's ToxRefDB 2.

In data set [1] the test system is rat. The conditions noted are these: Combined chronic toxicity/carcinogenicity, wistar, Oral, Feed, dose end: 104 week, group: systemic.
For data set [2], the system named is mouse. As to conditions: Carcinogenicity, other, Oral, Feed, dose end: 92 week, group: systemic.
Data set [3] concerns rat. The conditions noted are these: Subchronic oral toxicity in rodents, fischer, Water, dose end: 13 week, group: systemic.
Data set [4] relates to rat. The conditions noted are these: Subchronic oral toxicity in rodents, fischer, Water, dose end: 13 week, group: systemic. This is another data set of the same source.
Data set [5] has as its system rat. The conditions noted are these: Combined chronic toxicity/carcinogenicity; fischer; Oral; Water; dose end: 21 month; group: systemic; systemic / pathology microscopic / heart / thrombus + systemic / pathology microscopic / liver / degeneration + systemic / pathology ….
For data set [6], the system named is dog. The conditions noted are these: Chronic toxicity, beagle, Oral, Feed, dose end: 54 week, group: systemic.
In data set [7] the test system is rat. The conditions noted are these: Carcinogenicity; other; Oral; Feed; dose end: 82 week; group: systemic; systemic / in life observation / clinical signs / fur (altered appearance) + systemic / in life observation / clinical signs / hunched ….
Data set [8] concerns rat. The conditions noted are these: Subchronic oral toxicity in rodents, sprague dawley, Feed, dose end: 90 day.
Data set [9] relates to mouse. As to conditions: Carcinogenicity, other, Oral, Feed, dose end: 24 month, group: systemic.
Data set [10] deals with rat. The conditions noted are these: Combined chronic toxicity/carcinogenicity, sprague dawley, Oral, Feed, dose end: 24 month, group: systemic.
Data set [11] deals with mouse. As to conditions: Combined chronic toxicity/carcinogenicity, other, Oral, Feed, dose end: 24 month, group: systemic.
Data set [12] deals with rat. The conditions noted are these: Prenatal developmental toxicity study, wistar, Oral, Gavage/Intubation, dose end: 16 GD.
In data set [13] the test system is mouse. As to conditions: Subchronic oral toxicity in rodents, cd1, Feed, dose end: 13 week, group: systemic, systemic / hematology / hemoglobin (hgb) / hemoglobin (hgb) + systemic / hematology / mean corpuscular hemoglobin concentration (mchc) / ….
Data set [14] concerns rat. As to conditions: Combined chronic toxicity/carcinogenicity; sprague dawley; Oral; Feed; dose end: 104 week; group: systemic; systemic / in life observation / body weight / body weight gain + systemic / pathology microscopic / blood vessel / aneurysm + systemic / ….
The test system of data set [15] is rat. The conditions noted are these: Prenatal developmental toxicity study, sprague dawley, Oral, Gavage/Intubation, dose end: 16 GD.
The test system of data set [16] is rat. As to conditions: Combined chronic toxicity/carcinogenicity; sprague dawley; Oral; Feed; dose end: 24 month; group: systemic; systemic / clinical chemistry / sodium / sodium.
Data set [17] has as its system dog. The conditions noted are these: Chronic toxicity; beagle; Oral; Feed; dose end: 12 month; group: systemic; systemic / clinical chemistry / sodium / sodium + systemic / in life observation / body weight / body weight + systemic / in life ….
Data set [18] deals with rabbit. The conditions noted are these: Prenatal developmental toxicity study, new zealand white, Oral, Gavage/Intubation, dose end: 19 GD, group: maternal.
The subject of data set [19] is mouse. As to conditions: Prenatal developmental toxicity study, cd1, Oral, Gavage/Intubation, dose end: 16 GD.
Data set [20] relates to mouse. The conditions noted are these: Developmental neurotoxicity study; cd1; Injection; Subcutaneous; dose end: 35 PND; group: cannot be grouped; developmental / developmental landmark / eye opening / eye opening + systemic / in life observation / clinical signs / [other] + systemic / ….
Data set [21] has as its system rat. As to conditions: Developmental neurotoxicity study; other; Oral; Water; dose end: 20 PND; group: cannot be grouped; systemic / in life observation / body weight / body weight gain + systemic / in life observation / food consumption / food consumption + ….
In data set [22] the test system is mouse. As to conditions: Subchronic oral toxicity in rodents, b6c3f1, Water, dose end: 30 day, group: systemic.
[23] abbreviates: systemic / pathology microscopic / liver / hypertrophy + systemic / pathology microscopic / thyroid gland / [other].
Setting [24] is: systemic / pathology microscopic / liver / hypertrophy + systemic / pathology microscopic / thyroid gland / [other] + systemic / in life ….
[25] abbreviates: systemic / pathology microscopic / liver / depletion glycogen.
Where [26] appears, read: systemic / pathology microscopic / liver / depletion glycogen + systemic / pathology microscopic / lung / adenocarcinoma + systemic / ….
Where [27] appears, read: systemic / in life observation / body weight / body weight gain + systemic / organ weight / kidney / relative to body weight + systemic / ….
[28] abbreviates: systemic / organ weight / liver / relative to body weight.
Setting [29] is: systemic / clinical chemistry / creatinine / creatinine + systemic / clinical chemistry / thyroxine (t4) / thyroxine (t4), total + systemic….
Setting [30] is: systemic / in life observation / body weight / body weight + systemic / pathology microscopic / kidney / nephropathy + systemic / pathology ….
[31] abbreviates: systemic / in life observation / clinical signs / [other] + systemic / in life observation / body weight / body weight + systemic / in life ….
Setting [32] is: systemic / in life observation / clinical signs / [other] + systemic / in life observation / body weight / body weight gain + systemic / in ….
Setting [33] is: group: cholinesterase, cholinesterase / cholinesterase / cholinesterase / plasma cholinesterase (che).
Setting [34] is: group: systemic, systemic / hematology / mean corpuscular hemoglobin concentration (mchc) / mean corpuscular hemoglobin concentration (mchc) + systemic / ….
The mark [35] stands for this setting: group: systemic, systemic / pathology microscopic / kidney / pigmentation.
The mark [36] stands for this setting: systemic / in life observation / mortality / mortality.
Where [37] appears, read: systemic / pathology gross / urinary bladder / thickened.
Setting [38] is: systemic / in life observation / body weight / body weight gain + systemic / pathology gross / kidney / enlarged + systemic / pathology ….
Setting [39] is: systemic / in life observation / mortality / mortality + systemic / in life observation / body weight / body weight gain.
Setting [40] is: group: developmental, developmental / developmental malformation / bone / fragmented + systemic / in life observation / clinical signs / reduced body size.
The mark [41] stands for this setting: group: maternal, systemic / in life observation / body weight / body weight gain + systemic / in life observation / clinical signs / convulsions + systemic….
[42] abbreviates: group: developmental, developmental / developmental malformation / bone / incomplete ossification + systemic / in life observation / body weight / fetal weight + ….
Where [43] appears, read: group: maternal, systemic / in life observation / body weight / body weight + systemic / in life observation / body weight / body weight gain + systemic / in….
[44] abbreviates: systemic / organ weight / liver / relative to body weight + reproductive / reproductive performance / aborted / aborted + reproductive / ….
The mark [45] stands for this setting: group: developmental, developmental / developmental malformation / bone / supernumerary + developmental / developmental malformation / general / hemorrhage + ….
Setting [46] is: group: maternal, reproductive / reproductive performance / resorptions / resorptions + systemic / in life observation / clinical signs / abnormal movements….
Setting [47] is: systemic / clinical chemistry / triglycerides / triglycerides.
Where [48] appears, read: systemic / organ weight / kidney / absolute + systemic / organ weight / kidney / relative to body weight + systemic / organ weight / liver….

SMILES strings stand for the structures.

Take `CC1(C)[C@H](C(=O)OCc2cccc(Oc3ccccc3)c2)[C@@H]1C=C(Cl)Cl` [1RS cis-Permethrin]: the LEL in data set [1] (setting [23]) stood at 50 mg/kg/day; in [2] (setting [25]), 10 mg/kg/day. In addition, the LOAEL – broadly, the lowest dose or exposure tested at which an adverse effect was seen – was 50 mg/kg/day in data set [1] (setting [23]) and more than 250 mg/kg/day in data set [2] (setting [26]). Also, the NEL in data set [1] (setting [24]) was 10 mg/kg/day; in [2] (setting [25]) it was less than 10 mg/kg/day. Also, the NOAEL (as a rule, the highest dose or exposure tested at which no adverse effect was seen) in [1] (setting [24]) is 10 mg/kg/day; in data set [2] (setting [26]), not below 250 mg/kg/day.

Turning to `COc1cc(-c2ccc(N)c(OC)c2)ccc1N.Cl.Cl` [3,3'-Dimethoxybenzidine dihydrochloride], the LOAEL is more than 120 mg/kg/day in data set [3] (setting [27]), 109 mg/kg/day in [4] (setting [30]) and 6 mg/kg/day in data set [5]. Also, the no-observed-adverse-effect level (NOAEL) is not below 120 mg/kg/day in [3] (setting [27]), 56 mg/kg/day in data set [4] (setting [30]) and less than 6 mg/kg/day in data set [5]. The LEL in [3] (setting [28]) worked out at 13 mg/kg/day; in [4] (setting [29]) it was 11 mg/kg/day; in data set [5], 6 mg/kg/day. Besides, the NEL is less than 13 mg/kg/day in [3] (setting [28]), less than 11 mg/kg/day in [4] (setting [29]) and less than 6 mg/kg/day in data set [5].

Turning to `O=S1OCC2C(CO1)C1(Cl)C(Cl)=C(Cl)C2(Cl)C1(Cl)Cl` (centres undefined) [Endosulfan], the NEL in [6] (setting [31]) is 0.25 mg/kg/day; in data set [7], less than 11.2 mg/kg/day; in data set [8] (setting [33]), 3 mg/kg/day; in [8] (setting [35]) it was less than 0.5 mg/kg/day; in data set [9] (setting [37]) it was less than 0.3 mg/kg/day; in data set [10] (systemic / in life observation / body weight / body weight gain + systemic / pathology gross / kidney / enlarged), 0.75 mg/kg/day. Moreover, the NEL was 0.9 mg/kg/day in [11] (setting [36]); 2 mg/kg/day in data set [12] (setting [40]); 2 mg/kg/day in data set [12] (setting [41]); less than 0.27 mg/kg/day in [13]; 0.6 mg/kg/day in [14]. Moreover, the NOAEL in data set [6] (setting [31]) is 0.25 mg/kg/day; in data set [7], not below 22.2 mg/kg/day; in [8] (setting [33]), not below 18 mg/kg/day; in [8] (setting [34]), 0.5 mg/kg/day; in data set [9] (systemic / in life observation / mortality / mortality + systemic / pathology gross / urinary bladder / thickened) it was 0.9 mg/kg/day; in data set [10] (setting [38]) it was not below 3.75 mg/kg/day. Moreover, the NOAEL in data set [11] (setting [39]) is not below 2.7 mg/kg/day; in [12] (setting [40]), 2 mg/kg/day; in [12] (setting [41]), 2 mg/kg/day; in data set [13] it was less than 0.27 mg/kg/day; in [14], 0.6 mg/kg/day. The LEL is 0.75 mg/kg/day in data set [6] (setting [32]); 11.2 mg/kg/day in data set [7]; 18 mg/kg/day in [8] (setting [33]); 0.5 mg/kg/day in [8] (setting [35]); 0.3 mg/kg/day in data set [9] (setting [37]); 3.75 mg/kg/day in [10] (setting [38]). The LEL was 2.7 mg/kg/day in data set [11] (setting [39]); 6 mg/kg/day in data set [12] (setting [40]); 6 mg/kg/day in data set [12] (setting [41]); 0.27 mg/kg/day in data set [13]; 2.9 mg/kg/day in [14]. Besides, the LOAEL is 0.75 mg/kg/day in data set [6] (setting [32]); more than 22.2 mg/kg/day in [7]; more than 18 mg/kg/day in data set [8] (setting [33]); 1.5 mg/kg/day in data set [8] (setting [34]); 2.6 mg/kg/day in [9] (setting [36]); more than 3.75 mg/kg/day in data set [10] (setting [38]). Further, the lowest observed adverse effect level (LOAEL) in data set [11] (setting [39]) is more than 2.7 mg/kg/day; in data set [12] (setting [40]) it was 6 mg/kg/day; in data set [12] (setting [41]), 6 mg/kg/day; in [13], 0.27 mg/kg/day; in data set [14], 2.9 mg/kg/day.

Take `CCOc1nc(NC)nc(NC(=O)NS(=O)(=O)c2ccccc2C(=O)OC)n1` [Ethametsulfuron-methyl]: the LEL in data set [15] (setting [42]) amounted to 4000 mg/kg/day; in data set [15] (setting [43]) it was 4000 mg/kg/day; in data set [16], 210 mg/kg/day; in data set [17], 478 mg/kg/day; in data set [18] (setting [28]), 1000 mg/kg/day. For the same compound, the LOAEL was 4000 mg/kg/day in [15] (setting [42]); 4000 mg/kg/day in data set [15] (setting [43]); more than 210 mg/kg/day in data set [16]; 478 mg/kg/day in data set [17]; 1000 mg/kg/day in data set [18] (setting [28]). Also, the NEL was found to be 1000 mg/kg/day in data set [15] (setting [42]); 1000 mg/kg/day in [15] (setting [43]); 21 mg/kg/day in [16]; 87.3 mg/kg/day in [17]; 250 mg/kg/day in data set [18] (setting [44]). Also, the no-observed-adverse-effect level (NOAEL) in data set [15] (setting [42]) is 1000 mg/kg/day; in data set [15] (setting [43]), 1000 mg/kg/day; in data set [16], not below 210 mg/kg/day; in data set [17], 87.3 mg/kg/day; in data set [18] (setting [44]), 250 mg/kg/day.

As to `CN1CCC[C@H]1c1cccnc1` [Nicotine], the LEL in data set [19] (group: developmental, developmental / developmental malformation / bone / supernumerary) amounted to 12 mg/kg/day; in data set [19] (setting [46]), 12 mg/kg/day; in data set [20], 0.5 mg/kg/day; in data set [21] it was 2.9 mg/kg/day. The LOAEL in data set [19] (setting [45]) was more than 20 mg/kg/day; in data set [19] (setting [46]), more than 20 mg/kg/day; in [20], more than 0.5 mg/kg/day; in [21], more than 4.4 mg/kg/day. The NEL in [19] (setting [45]) was 4 mg/kg/day; in data set [19] (setting [46]) it was 4 mg/kg/day; in [20], less than 0.5 mg/kg/day; in [21], less than 2.9 mg/kg/day. Further, the NOAEL was not below 20 mg/kg/day in data set [19] (setting [45]), not below 20 mg/kg/day in data set [19] (setting [46]), not below 0.5 mg/kg/day in data set [20] and not below 4.4 mg/kg/day in data set [21].

Turning to `O=[As]([O-])([O-])[O-].[Na+].[Na+].[Na+]` [Trisodium arsenate], in data set [22] (setting [47]), the LEL came out at 0.00625 mg/kg/day and the NEL was less than 0.00625 mg/kg/day. Besides, in data set [22] (setting [48]), the lowest observed adverse effect level (LOAEL) was found to be 0.625 mg/kg/day and the NOAEL came out at 0.00625 mg/kg/day.
